Tests used:
[1] = tested on: gesunde männliche Probanden; assay: Double-blind 4-way crossover study, 7-day treatment periods, blood pressure and pulse in healthy volunteers; type: in vivo, human; conditions: for Diastolische Blutdruckwerte am 7. Versuchstag, Mittelwert / Systolische Blutdruckwerte am 7. Versuchstag, Mittelwert: mean of 6 Probanden, day 7, lying, 2,5 mg Cilazapril and/or 120 mg Propranolol daily; for Abfall des systolischen und diastolischen Blutdrucks: Monotherapie (2,5 mg Cilazapril or 120 mg Propranolol), day 7, healthy volunteers
Method: […] Proband […], wurde vor Beginn der Studie von jedem Probanden die […], und man […] Kontrollen verbunden war: […] Die Probanden hatten jeweils an den Versuchstagen 0 bis 6 […] zu […] Abend […] noch geraucht. Nach 5-minütiger Ruhepause im Sitzen wurden systolischer und diastolischer Blutdruck und Puls […] die Probanden […], und man […] unter Ueberwachung die Medikation mit 100 ml Leitungswasser und […] Hause. Am […] Probanden […]; die Untersuchungen […] bei 15° erhobenem Oberkörper durchgeführt. Nach jeweils 15-minütiger […] und Puls zu den Zeitpunkten -2, 1, 2, 6, 8 und 24 Stunden gemessen.

[2] = tested on: Patienten mit einer essentiellen Hypertonie; assay: Crossover study, 3-week treatment periods, sitting blood pressure in hypertensive patients; type: in vivo, human; conditions: 3 weeks treatment, 2,5 mg Cilazapril and/or 120 mg Propranolol; for mittlere Senkung des diastolischen Blutdrucks: 2 Stunden after dosing, sitting, 13 patients; for Ansprechen (Senkung des diastolischen Blutdrucks auf unter 90 mmHg): number of responders
Method: B) Zehn männliche und drei weibliche Patienten mit einer essentiellen Hypertonie im Alter von 43-62 Jahren und mit einem Gewicht von 64-106 kg nahmen an dieser Crossover-Studie teil, die folgende drei Behandlungsabschnitte von jeweils 3 Wochen umfasste, wobei die Abschnitte (1) und (2) je nach Gruppe vertauscht waren: • (1) 2,5 mg Cilazapril • (2) 120 mg Propranolol • (3) 2,5 mg Cilazapril plus 120 mg Propranolol.
Mit Ausnahme von drei Patienten erhielt keiner während mindestens 2 Wochen vor Beginn einer zweiwöchigen Placebo-Behandlung eine blutdrucksenkende Medikation. […] Dann wurden die Patienten wahlweise in zwei Gruppen eingeteilt, wobei die eine Gruppe zuerst mit Cilazapril und die andere zuerst mit Propranolol behandelt wurde. Nach der dreiwöchigen Behandlungsdauer wurde die Medikation in den beiden Gruppen ausgetauscht. Während der Behandlungsabschnitte wurden alle Messungen 2 Stunden nach Verabreichung durchgeführt, wobei der Blutdruck jeweils im Sitzen gemessen wurde.
Als "Ansprechen" auf eine Therapie wurde in dieser Studie eine Senkung des diastolischen Blutdrucks auf unter 90 mmHg defineriert.

[3] = tested on: Patienten, deren Bluthochdruck mit Captopril behandelt wird; conditions: added to Captopril treatment; Amery et al., Clinical Science 61 (1981); cited from earlier work

Structure (SMILES) | Diastolische Blutdruckwerte am 7. Versuchstag, Mittelwert ([1]; 1 Std) [mmHg] | Systolische Blutdruckwerte am 7. Versuchstag, Mittelwert ([1]; 1 Std) [mmHg] | Diastolische Blutdruckwerte am 7. Versuchstag, Mittelwert ([1]; 2 Std) [mmHg] | Systolische Blutdruckwerte am 7. Versuchstag, Mittelwert ([1]; 2 Std) [mmHg] | Diastolische Blutdruckwerte am 7. Versuchstag, Mittelwert ([1]; 6 Std) [mmHg] | Systolische Blutdruckwerte am 7. Versuchstag, Mittelwert ([1]; 6 Std) [mmHg] | Diastolische Blutdruckwerte am 7. Versuchstag, Mittelwert ([1]; 8 Std) [mmHg] | Systolische Blutdruckwerte am 7. Versuchstag, Mittelwert ([1]; 8 Std) [mmHg] | Diastolische Blutdruckwerte am 7. Versuchstag, Mittelwert ([1]; 24 Std) [mmHg] | Systolische Blutdruckwerte am 7. Versuchstag, Mittelwert ([1]; 24 Std) [mmHg] | Diastolische Blutdruckwerte am 7. Versuchstag, Mittelwert ([1]; -2 Std) [mmHg] | Systolische Blutdruckwerte am 7. Versuchstag, Mittelwert ([1]; -2 Std) [mmHg] | Abfall des systolischen und diastolischen Blutdrucks [1] | Zunahme der Herzfrequenz ([1]; Monotherapie, 2,5 mg Cilazapril, day 7) | mittlere Senkung des diastolischen Blutdrucks [2] [mmHg] | Ansprechen (Senkung des diastolischen Blutdrucks auf unter 90 mmHg) [2] [von 13 Patienten] | Abnahme der Herzfrequenz ([1]; Monotherapie, 120 mg Propranolol, day 7) | Blood pressure effect of additional Propranolol [3]
CCOC(=O)[C@H](CCc1ccccc1)N[C@H]1CCCN2CCC[C@@H](C(=O)O)N2C1=O [Cilazapril, 9(S)-[1-(S)-Aethoxycarbonyl-3-phenylpropylamino]octahydro-10-oxo-6H-pyridazo[1,2-a]-[1,2]diazepin-1(S)-carbonsäure] | 72 | 109 | 69 | 104 | 63 | 107 | 66 | 108 | 74 | 118 | 73 | 109 | ca. 7 mmHg | ca. 5 Schläge/Minute | 8 | 4 | – | –
CC(C)NCC(O)COc1cccc2ccccc12 (stereo not drawn) [Propranolol] | 63 | 106 | 67 | 106 | 60 | 110 | 65 | 108 | 76 | 115 | 72 | 111 | ca. 7 mmHg | – | 9 | 2 | ca. 8 Schläge/Minute | eine weitere Blutdrucksenkung

Reference: patent EP0334164A2, “Antihypertensive combination preparation” (F. HOFFMANN-LA ROCHE AG, priority 1988, dated 1989)
